Non-standard residues stand in square brackets, D forms with d. Residues, ends and D or L forms follow the SMILES beside them. *: point of attachment. Trp(5-F) = N[C@@H](Cc1c[nH]c2ccc(F)cc12)C(=O)O; 2Nal = N[C@@H](Cc1ccc2ccccc2c1)C(=O)O; Boc = CC(C)(C)OC(=O)*; For = O=C*
Legend:
Assay type in all cases: cell-based
gastrin receptor [1] = molecular target: T1, gastrin receptor (Mus musculus, UniProt P56481); assay: mouse stomach assay for gastrin activity (isolated stomach, acid secretion); conditions: for Acid seretion at 10^-5 M test compound, relative to pentagastrin (%): mouse stomach, NS = not significant
T1 construct: assayed for gastrin activity using the mouse stomach assay; from tissue; host or cells: isolated mouse stomach
T1 sequence (P56481 1-453): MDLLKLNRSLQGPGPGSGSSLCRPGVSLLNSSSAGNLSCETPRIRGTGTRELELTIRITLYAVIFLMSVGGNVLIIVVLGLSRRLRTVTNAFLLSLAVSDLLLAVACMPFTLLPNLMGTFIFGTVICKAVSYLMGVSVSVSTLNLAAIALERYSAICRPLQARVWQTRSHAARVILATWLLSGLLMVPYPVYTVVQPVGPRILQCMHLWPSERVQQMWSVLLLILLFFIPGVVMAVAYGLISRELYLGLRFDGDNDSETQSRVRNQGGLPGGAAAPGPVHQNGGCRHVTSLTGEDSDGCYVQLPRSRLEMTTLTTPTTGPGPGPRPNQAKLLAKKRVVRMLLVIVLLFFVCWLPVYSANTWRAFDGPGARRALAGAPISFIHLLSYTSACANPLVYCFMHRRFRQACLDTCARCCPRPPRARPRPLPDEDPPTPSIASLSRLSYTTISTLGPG
Method: The compounds were assayed for gastrin activity using the mouse stomach assay as described by Black, J. W. and Shankley, N. P., Br. J. Pharmacol., 86, 571-579, (1985), and also in the guinea-pig fundus assay, as follows: […]

gastrin receptor [2] = molecular target: T2, gastrin receptor (Cavia porcellus, UniProt H0VZC5); assay: guinea-pig fundus assay for gastrin activity (stomach muscle strips); conditions: 10^-8 M devazepide present, 60 minute equilibration, agonist e.g. pentagastrin, standard errors less than 5%
T2 construct: Strips of muscle (approximately 2.5 cm by 1 cm) are removed from the proximal area of the stomach; from tissue; host or cells: guinea-pig proximal stomach (fundus) muscle strips
T2 sequence (H0VZC5 1-426): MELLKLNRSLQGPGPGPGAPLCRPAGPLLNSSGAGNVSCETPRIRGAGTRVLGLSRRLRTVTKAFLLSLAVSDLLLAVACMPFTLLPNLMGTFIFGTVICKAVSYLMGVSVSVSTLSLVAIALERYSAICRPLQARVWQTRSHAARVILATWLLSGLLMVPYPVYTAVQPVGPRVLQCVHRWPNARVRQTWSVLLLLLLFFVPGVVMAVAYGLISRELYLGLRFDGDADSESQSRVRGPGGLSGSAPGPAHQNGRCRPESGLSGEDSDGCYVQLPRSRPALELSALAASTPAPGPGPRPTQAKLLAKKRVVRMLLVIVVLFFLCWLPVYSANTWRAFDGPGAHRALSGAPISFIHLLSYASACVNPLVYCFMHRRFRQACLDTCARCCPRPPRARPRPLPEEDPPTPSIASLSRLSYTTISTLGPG
Method: The compounds were assayed for gastrin activity using the mouse stomach assay as described by Black, J. W. and Shankley, N. P., Br. J. Pharmacol., 86, 571-579, (1985), and also in the guinea-pig fundus assay, as follows:
The stomach is removed from a male Dunkin-Hartley guinea-pig (250-500 g), and Krebs solution is injected through a hypodermic needle under the top stomach muscle layer. The composition (mM) of the Krebs solution is as follows: Na^+ 143, K^+ 5.9, Ca^2+ 2.5, Mg^2+ 1.2, Cl^- 128, H2 PO4^- 2.2, HCO3^- 24.9, SO4^2- 1.2, dextrose 10. Strips of muscle (approximately 2.5 cm by 1 cm) are removed from the proximal area of the stomach (one from each side) and tied with cotton thread to isotonic transducers under an initial loading tension of 0.35 g.
The preparation is immersed in 20 mls of Krebs solution containing 10^-8 M devazepide (25 μl 2×10^-3 M devazepide/100% DMF solution in 5 dm^3 Krebs) and gassed with 95% O2 /5% CO2. The function of the devazepide is to block possible effects at CCK receptors present in the tissue.
The preparation is washed twice over a 60 minute period then 10 mM KCl is added. At 90 minutes, test compounds (ie. potential antagonists) are added and a further 60 minute equilibration period allowed. After this time, cumulative agonist (e.g. pentagastrin) dose-response curves are constructed.

[3] = molecular target: T3, cholecystokinin receptors (Cavia porcellus, UniProt Q63931); assay: CCK-antagonist activity in isolated guinea-pig gall-bladder strip preparations; conditions: guinea-pig gall-bladder strips; CCK-8 as agonist; test compound incubated for 60 minutes; standard errors less than 5%
T3 construct: Isolated, strip preparations were prepared from gall-bladders removed from male Dunkin-Hartley guinea-pigs; from tissue; host or cells: guinea-pig gall-bladder strips
T3 sequence (Q63931 1-430): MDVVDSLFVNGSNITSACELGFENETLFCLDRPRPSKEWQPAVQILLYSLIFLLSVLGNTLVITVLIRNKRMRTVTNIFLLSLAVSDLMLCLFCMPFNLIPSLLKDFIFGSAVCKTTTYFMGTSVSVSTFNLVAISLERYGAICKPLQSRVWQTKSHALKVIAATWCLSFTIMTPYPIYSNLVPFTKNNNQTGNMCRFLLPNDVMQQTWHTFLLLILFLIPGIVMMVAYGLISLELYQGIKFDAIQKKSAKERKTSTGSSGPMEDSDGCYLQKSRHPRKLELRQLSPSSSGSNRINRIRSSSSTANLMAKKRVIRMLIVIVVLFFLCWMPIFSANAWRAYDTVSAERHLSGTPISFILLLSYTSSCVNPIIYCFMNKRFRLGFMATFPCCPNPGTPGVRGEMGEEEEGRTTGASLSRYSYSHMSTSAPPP
Method: The compounds of the invention were also assayed for CCK-antagonist activity as follows:
Isolated, strip preparations were prepared from gall-bladders removed from male Dunkin-Hartley guinea-pigs (250-500 g body weight) according to the method of La Morte, W. W., et al., J.P.E.T., 217, (3), 638-644 (1981).
The complete gall-bladder is removed and opened along the longitudinal axis. Strips measuring 3 mm in the longitudinal axis and 1 mm in the transverse axis are cut and then tied with cotton to stainless steel wires. The preparation is connected to a GRASS FTO3 isometric transducer under an initial loading tension of 1 g and is immersed in 20 mls of Krebs solution maintained at 37° C. and gassed with 95% O2 /5% CO2. The Krebs solution is as detailed above in connection with the fundus assay, except that the Ca^2+ concentration is decreased to 0.5 mM. After 30 mins the preparation is washed. Drug addition begins after an initial 90 min stabilisation period. Responses are measured as changes in tension from that immediately prior to any drug addition. Single cumulative agonist concentration-effect curves, using CCK-8 as agonist, are obtained on each preparation in the absence and presence of test compound which has been incubated for 60 minutes. The antagonist activity of the test compound is estimated and expressed as the negative logarithm (base 10) of the equilibrium dissociation constants (pK8) using the modifications of standard competitive analysis described by Black et al., Br. J. Pharmacol.,86,571-579, (1985) and Shankley et al., Br. J. Pharmacol.,94,264-274 (1988).

[4] = isolated mouse stomach assay, gastrin antagonism, standard errors less than 5%

pKB (gastrin receptor [2])	pKB [3]	Molecule	further results
5.6	–	CN(C)C(=O)[C@H](Cc1ccccc1)NC(=O)[C@H](CC(=O)O)NC(=O)[C@H](Cc1ccc2ccccc2c1)NC(=O)[C@H](Cc1c[nH]c2ccccc12)NC(=O)OC(C)(C)C [Example 6, N-t-Butyloxycarbonyl-L-tryptophyl-L-3-(2-naphthyl)alanyl-L-aspartyl-L-phenylalanyl-(N,Ndimethyl)amide] (Boc-W[2Nal]DF-NMe2)	pKB mouse stomach (gastrin receptor [1]; [4]): 5.6; Acid seretion at 10^-5 M test compound, relative to pentagastrin (%) (gastrin receptor [1]): 22%
5.4	6.7	Cc1cccc(CCNC(=O)[C@H](CC(=O)O)NC(=O)[C@H](Cc2ccc3ccccc3c2)NC(=O)[C@H](Cc2c[nH]c3ccccc23)NC(=O)OC(C)(C)C)c1 [Example 39, N-t-Butyloxycarbonyl-L-tryptophyl-L-3-(2-naphthyl)alanyl-L-aspartyl-3-methylphenethylamide]	–
6.0	5.9	N-t-Butyloxycarbonyl-L-tryptophyl-L-3-(2-naphthyl)alanyl-L-aspartyl-trans- 2-phenylcyclopropylamide [Example 29]	–
5.8	6.5	CCCCOC(=O)N[C@@H](Cc1c[nH]c2ccccc12)C(=O)N[C@@H](Cc1ccc2ccccc2c1)C(=O)N[C@@H](CC(=O)O)C(=O)NCCc1ccccc1C(F)(F)F [Example 27, N-Butyloxycarbonyl-L-tryptophyl-L-3-(2-naphthyl)alanyl-L-aspartyl-2-trifluoromethylphenethylamide]	–
5.9	7.0	CC(C)(C)CCNC(=O)[C@H](CC(=O)O)NC(=O)[C@H](Cc1ccc2ccccc2c1)NC(=O)[C@H](Cc1c[nH]c2ccccc12)NC(=O)OC(C)(C)C [Example 64, N-t-Butyloxycarbonyl-L-tryptophyl-L-3-(2-naphthyl)alanyl-L-aspartyl-3,3-dimethylbutylamide]	–
6.0	6.5	N-t-Butyloxycarbonyl-L-tryptophyl-L-3-(2-naphthyl)alanyl-L-aspartyl-3,4-dimethoxyphenethylamide [Example 41]	–

The remaining lines, values behind:

Molecule	pKB (gastrin receptor [2])	pKB [3]	further results
CC(C)(C)OC(=O)N[C@@H](Cc1c[nH]c2ccc(F)cc12)C(=O)N[C@@H](Cc1ccc2ccccc2c1)C(=O)N[C@@H](CC(=O)O)C(=O)N[C@@H](Cc1ccccc1)C(N)=O [Example 18, N-t-Butyloxycarbonyl-5-fluoro-L-tryptophyl-L-3-(2-naphthyl)alanyl-L-aspartyl-L-phenylalaninamide] (Boc-[Trp(5-F)][2Nal]DF-NH2)	–	–	Kb (gastrin receptor [1]; isolated mouse stomach assay, gastrin antagonism, standard errors less than 5%, read-out: pKB mouse stomach (converted)): 1580 nM; Acid seretion at 10^-5 M test compound, relative to pentagastrin (%) (gastrin receptor [1]): 54%; Kb (gastrin receptor [2]): 1260 nM; Kb [3]: 631 nM
CC(C)(C)OC(=O)N[C@@H](Cc1c[nH]c2ccccc12)C(=O)N[C@@H](Cc1ccc2ccccc2c1)C(=O)N[C@@H](CC(=O)O)C(=O)NCCc1ccc([N+](=O)[O-])cc1 [Example 30, N-t-Butyloxycarbonyl-L-tryptophyl-L-3-(2-naphthyl)alanyl-L-aspartyl-4-nitrophenethylamide]	5.7	6.6	–
CC(C)(C)OC(=O)N[C@@H](Cc1c[nH]c2ccccc12)C(=O)N[C@@H](Cc1ccc2ccccc2c1)C(=O)N[C@@H](CC(=O)O)C(=O)NCCc1ccc(Cl)cc1 [Example 8, N-t-Butyloxycarbonyl-L-tryptophyl-L-3-(2-naphthyl)alanyl-L-aspartyl-(4-chlorophenethyl)amide]	5.0	–	pKB mouse stomach (gastrin receptor [1]; [4]): 5.9; Acid seretion at 10^-5 M test compound, relative to pentagastrin (%) (gastrin receptor [1]): 28%
COc1ccc(CCNC(=O)[C@H](CCC(=O)O)NC(=O)[C@H](Cc2ccc3ccccc3c2)NC(=O)[C@H](Cc2c[nH]c3ccccc23)NC(=O)OC(C)(C)C)cc1 [Example 61, N-t-Butyloxycarbonyl-L-tryptophyl-L-3-(2-naphthyl)alanyl-L-glutamyl-4-methoxyphenethylamide]	5.7	6.5	–
N-t-Butyloxycarbonyl-L-tryptophyl-L-3-(2-naphthyl)alanyl-L-aspartyl-4-hydroxyphenethylamide [Example 38]	5.9	7.1	–
CC(C)(C)OC(=O)N[C@@H](Cc1c[nH]c2ccccc12)C(=O)N[C@@H](Cc1ccc2ccccc2c1)C(=O)N[C@@H](CC(=O)O)C(=O)N1CCc2ccccc2C1 [Example 26, N-[N-t-Butyloxycarbonyl-L-tryptophyl-L-3-(2-naphthyl)alanyl-L-aspartyl]-1,2,3,4-tetrahydroisoquinolinamide]	5.5	6.6	–
CC(C)(C)OC(=O)N[C@@H](Cc1c[nH]c2ccccc12)C(=O)N[C@@H](Cc1ccc2ccccc2c1)C(=O)N[C@@H](CC(=O)O)C(=O)NCCc1ccncc1 [Example 44, N-t-Butyloxycarbonyl-L-tryptophyl-L-3-(2-naphthyl)alanyl-L-aspartyl-2-(4-pyridyl)ethylamide]	6.0	6.2	–
NC(=O)[C@H](Cc1ccccc1)NC(=O)[C@H](CC(=O)O)NC(=O)[C@H](Cc1ccc2ccccc2c1)NC(=O)[C@H](Cc1c[nH]c2ccccc12)NC=O [Example 15, N-Formyl-L-tryptophyl-L-3-(2-naphthyl)alanyl-L-aspartyl-L-phenylalaninamide] (For-W[2Nal]DF-NH2)	–	–	Kb (gastrin receptor [2]): 5010 nM; Kb [3]: 631 nM

— patent US5486597A, “Tetrapeptide derivatives and analogues” (James Black Foundation Limited, priority 1990, dated 1996)
